Laboratory results published in patent US10130608B2, “Methods of treating or preventing multiple sclerosis” (Toray Industries, Inc., priority 2014, dated 2018).

Key:
[1] = system: MOG-induced mouse experimental autoimmune encephalomyelitis model; assay: MOG-induced mouse experimental autoimmune encephalomyelitis model, 30 mg/kg; format: in vivo; conditions: C57BL/6J mouse, MOG 35-55; 30 mg/kg orally twice daily for 16 days from three days before inoculation; scored 13 days after inoculation
Experimental: The action of the cyclohexane derivative (I) or the pharmaceutically acceptable salt thereof against an increase in the neurological symptom score in a MOG-induced mouse experimental autoimmune encephalomyelitis model was evaluated. The mouse experimental autoimmune encephalomyelitis model was prepared according to the method described in Journal of Neuroscience Research, 2006, Vol. 84, pp. 1225-1234 with partial modification. A MOG 35-55 administration solution, which was prepared by mixing equal volumes of a PBS solution containing a partially synthesized peptide of MOG (MOG 35-55; CS Bio Company Inc.) whose concentration was adjusted to 4 mg/mL and Freund's complete adjuvant, was intracutaneously inoculated to both lateral regions of each C57BL/6J mouse (male, 7-weeks old) (Charles River Laboratories Japan) in a total amount of 0.1 mL (0.05 mL per side). Further, on the day of inoculation of the MOG 35-55 administration solution, and two days thereafter, 200 μL of pertussis toxin (Sigma) whose concentration was adjusted to 1 μg/mL was intraperitoneally administered to each mouse. From three days before inoculation of the MOG 35-55 administration solution, Compound 3 was orally administered to mice twice daily at a dose of 30 mg/kg for 16 successive days. Compound 3 was used as a suspension in 0.5% methylcellulose solution. The group in which Compound 3 was administered to mice was provided as the Compound 3 administration group. To provide a vehicle administration group, 0.5% methylcellulose solution was administered in the same manner. Thirteen days after inoculation of the MOG 35-55 administration solution, the neurological symptom score was scored (0: normal, 1: limp tail or hind limb weakness, 2: limp tail and hind limb weakness, 3: partial hind limb paralysis, 4: complete hind limb paralysis, 5: moribund state). […] Comparative Control Compound 1 and Comparative Control Compound 2 were similarly evaluated. […] Thirteen days after inoculation of the MOG 35-55 administration solution, the neurological symptom score was scored.

[2] = system: PLP-induced mouse experimental autoimmune encephalomyelitis model; assay: PLP-induced mouse experimental autoimmune encephalomyelitis model; format: in vivo; conditions: SJL mouse, PLP 139-151; 10 mg/kg orally twice daily for 7 days from two days after inoculation; scored 9 days after inoculation
Experimental: Action of the cyclohexane derivative (I) or the pharmaceutically acceptable salt thereof against an increase in the neurological symptom score in a PLP-induced mouse experimental autoimmune encephalomyelitis model was evaluated. The mouse experimental autoimmune encephalomyelitis model was prepared according to the method described in International Immunology, 1997, Vol. 9, pp. 1243-1251 with partial modification. A PLP 139-151 administration solution, which was prepared by mixing equal volumes of a PBS solution containing a partially synthesized peptide of PLP (PLP 139-151; Kokusan Chemical Co., Ltd.) whose concentration was adjusted to 2 mg/mL and Freund's complete adjuvant, was intracutaneously inoculated to both lateral regions of each SJL mouse (female, 6-weeks old) (Charles River Laboratories Japan) in a total amount of 0.1 mL (0.05 mL per side). Further, on the day of inoculation of the PLP 139-151 administration solution, and two days thereafter, 200 μL of pertussis toxin (Sigma) whose concentration was adjusted to 1 μg/mL was intraperitoneally administered to each mouse. […] Nine days after inoculation of the PLP 139-151 administration solution, the neurological symptom score was scored (0: normal, 1: limp tail or hind limb weakness, 2: limp tail and hind limb weakness, 3: partial hind limb paralysis, 4: complete hind limb paralysis, 5: moribund state). […]

[3] = system: MOG-induced mouse experimental autoimmune encephalomyelitis model; assay: MOG-induced mouse experimental autoimmune encephalomyelitis model, 3 mg/kg and 10 mg/kg; format: in vivo; conditions: C57BL/6J mouse, MOG 35-55, scored 14 days after inoculation
Experimental: Action of the cyclohexane derivative (I) or the pharmaceutically acceptable salt thereof against an increase in the neurological symptom score in a MOG-induced mouse experimental autoimmune encephalomyelitis model was evaluated. A MOG 35-55 administration solution, which was prepared by mixing equal volumes of a PBS solution containing a partially synthesized peptide of MOG (MOG 35-55; CS Bio Company Inc.) whose concentration was adjusted to 4 mg/mL and Freund's complete adjuvant, was intracutaneously inoculated to both lateral regions of each C57BL/6J mouse (male, 10-weeks old) (Charles River Laboratories Japan) in a total amount of 0.1 mL (0.05 mL per side). Further, on the day of inoculation of the MOG 35-55 administration solution, and two days thereafter, 200 μL of pertussis toxin (Sigma) whose concentration was adjusted to 1 μg/mL was intraperitoneally administered to each mouse. As a test compound, Compound 3 was used. […] Fourteen days after inoculation of the MOG 35-55 administration solution, the neurological symptom score was scored (0: normal, 1: limp tail or hind limb weakness, 2: limp tail and hind limb weakness, 3: partial hind limb paralysis, 4: complete hind limb paralysis, 5: moribund state). […]

thrombin = molecular target: T1, thrombin (Homo sapiens, UniProt P00734); assay: Thrombin activity assay (SensoLyte 520 kit, FRET); format: biochemical; conditions: at the maximum concentration, 30 μmol/L; read-out: thrombin activity inhibition rate
T1 construct: purchased Anaspec Inc
Experimental: The action of the cyclohexane derivative (I) or the pharmaceutically acceptable salt thereof on the thrombin activity was evaluated using a SensoLyte (registered trademark) 520 thrombin activity assay kit manufactured by Anaspec Inc., which utilizes fluorescence resonance energy transfer (FRET).
The test compound was dissolved in dimethylsulfoxide (hereinafter referred to as DMSO), and diluted with the assay buffer included in the kit to a final DMSO concentration of 0.5 to 1%. […] Thereafter, the fluorescence value was measured by excitation at 485 nm and detection at 520 nm.
The thrombin activity inhibition rate (%) was calculated according to Equation 1, and regression analysis was carried out to obtain a sigmoid curve (variable slope), thereby calculating the IC50 value of the thrombin activity inhibition by the test compound: Thrombin activity inhibition rate (%)=(1−((fluorescence value in the presence of both thrombin and the test compound)−(fluorescence value in the absence of both thrombin and the test compound))/((fluorescence value in the presence of thrombin and absence of the test compound)−(fluorescence value in the absence of both thrombin and the test compound)))×100 Equation 1.

COc1ccc(-n2nc(C3(O)CCNCC3)cc2-c2ccc(C)cc2)cc1 [Comparative Control Compound 1]
rate of suppression of exacerbation of neurological symptoms [1]: 3.3%

COc1ccc(-n2nc(C3(O)CCC(O)CC3)cc2-c2ccccc2C)cc1 (stereo not shown) [Comparative Control Compound 2]
rate of suppression of exacerbation of neurological symptoms [1]: 6.5%

COc1ccc(-n2nc(C3(O)CCC(O)CC3)cc2-c2ccc(C)cc2)cc1 (stereo not drawn) [Compound 3, 1-(1-(4-methoxyphenyl)-5-(p-tolyl)-1H-pyrazol-3-yl)cyclohexane-cis-1,4-diol]
rate of suppression of exacerbation of neurological symptoms [2]: 66.4% | rate of suppression of exacerbation of neurological symptoms ([3]; 3 mg/kg orally twice daily for 12 days from two days after inoculation): 53.8% | rate of suppression of exacerbation of neurological symptoms ([3]; 10 mg/kg orally twice daily for 12 days from two days after inoculation): 61.5% | inhibition at 30 µM (thrombin): 17.2% | rate of suppression of exacerbation of neurological symptoms [1]: 85.7%
